Measurements published in patent US7560468B2, “Substituted 1,4,8-triazaspiro[4,5]decan-2-one compounds” (Gruenenthal GmbH, priority 2004, dated 2009).

Key:
[1] = system: batrachotoxin (BTX) binding site of the sodium channel; assay: Affinity to the batrachotoxin (BTX) binding site of the sodium channel; details: rat cerebrocortex synaptosomes, [3H]-batrachotoxinin A20 α-benzoate 10 nM; test concentration not given
[2] = system: NA transporter; assay: Inhibition of noradrenalin uptake in synaptosomes; type: biochemical

| Compound | BTX Inhibition [1] | Uptake (NA), rat, 10 μM, % inhibition [2] [%] |
| --- | --- | --- |
| COc1cc(C)c(S(=O)(=O)N2CCC3(CC2)NC(=O)C(Cc2ccccc2)N3)c(C)c1C (stereo not shown) [Example 4, 3-Benzyl-8-(4-methoxy-2,3,6-trimethylbenzolsulfonyl)-1,4,8-triazaspiro[4,5]decan-2-one] | 53 | 34 |
| CCOC(=O)CC(C)NC(=S)N1CCC2(CC1)NC(Cc1ccccc1)C(=O)N2C (stereo not shown) [Example 131, Ethyl 3-[(3-benzyl-1-methyl-2-oxo-1,4,8-triazaspiro[4,5]decan-8-carbothioyl)amino]-butyrate] | 42 | 42 |
| COC(=O)c1ccc(CN2C(=O)C(C(C)C)NC23CCN(C(=S)NCC2CCCO2)CC3)cc1 (stereo not shown) [Example 137, Methyl 4-{3-isopropyl-2-oxo-8-[(tetrahydrofuran-2-ylmethyl)thiocarbamoyl]-1,4,8-triazaspiro[4,5]dec-1-ylmethyl}-benzoate] | 37 | 30 |
| CCCCN1C(=O)C(C(C)C)NC12CCN(C(=S)Nc1c(F)c(F)c(F)c(F)c1F)CC2 (stereo not shown) [Example 152, 1-Butyl-3-isopropyl-2-oxo-1,4,8-triazaspiro[4,5]decan-8-thiocarboxylic acid pentafluorobenzolamide-amide] | 39 | 37 |
| COC(=O)c1ccccc1NC(=S)N1CCC2(CC1)NC(CCSC)C(=O)N2Cc1ccccc1C#N (stereo not shown) [Example 153, Methyl 2-{[1-(2-cyanobenzyl)-3-(2-methylsulfanylethyl)-2-oxo-1,4,8-triazaspiro[4,5]decan-8-carbothioyl]-amino}-benzoate] | 53 | 30 |
| COc1ccccc1NC(=S)N1CCC2(CC1)NC(C(C)C)C(=O)N2Cc1ccccc1 (stereo not shown) [Example 155, 1-Benzyl-3-isopropyl-2-oxo-1,4,8-triazaspiro[4,5]decan-8-thiocarboxylic acid (2-methoxy-benzol)amide] | 32 | 52 |
| CC(C)C1NC2(CCN(C(=S)Nc3cc(F)ccc3F)CC2)N(Cc2ccccc2)C1=O (stereo not shown) [Example 157, 1-Benzyl-3-isopropyl-2-oxo-1,4,8-triazaspiro[4,5]decan-8-thiocarboxylic acid (2,5-difluorobenzol)amide] | 39 | 38 |
| CCCCN1C(=O)C(CCSC)NC12CCN(C(=S)NCc1ccccc1)CC2 (stereo not shown) [Example 160, 1-Butyl-3-(2-methylsulfanylethyl)-2-oxo-1,4,8-triazaspiro[4,5]decan-8-thiocarboxylic acid benzylamide] | 63 | 42 |
| CSCCC1NC2(CCN(C(=S)Nc3cccc(C)c3)CC2)N(Cc2ccccc2C#N)C1=O (stereo not shown) [Example 161, 1-(2-Cyanobenzyl)-3-(2-methylsulfanylethyl)-2-oxo-1,4,8-triazaspiro[4,5]decan-8-thiocarboxylic acid m-tolylamide] | 53 | 33 |
| C=CCN1C(=O)C(C(C)C)NC12CCN(C(=S)NCc1ccc(F)cc1)CC2 (stereo not shown) [Example 162, 1-Allyl-3-isopropyl-2-oxo-1,4,8-triazaspiro[4,5]decan-8-thiocarboxylic acid 4-fluorobenzylamide] | – | 26 |
| COC(=O)c1ccc(CN2C(=O)C(C(C)C)NC23CCN(C(=S)Nc2c(F)c(F)c(F)c(F)c2F)CC3)cc1 (stereo not shown) [Example 164, Methyl 4-(3-isopropyl-2-oxo-8-pentafluorobenzolthiocarbamoyl-1,4,8-triazaspiro[4,5]dec-1-ylmethyl)benzoate] | 42 | 58 |
| CCOC(=O)NC(=S)N1CCC2(CC1)NC(C(C)C)C(=O)N2Cc1ccc(C(=O)OC)cc1 (stereo not shown) [Example 167, Methyl 4-(8-ethoxycarbonylaminocarbothioyl-3-isopropyl-2-oxo-1,4,8-triazaspiro[4,5]dec-1-ylmethyl)benzoate] | – | 42 |
| CSCCC1NC2(CCN(C(=S)NCC3CCCO3)CC2)N(Cc2ccc(F)cc2)C1=O (stereo not shown) [Example 168, 1-(4-Fluorobenzyl)-3-(2-methylsulfanylethyl)-2-oxo-1,4,8-triazaspiro[4,5]decan-8-thiocarboxylic acid (tetrahydrofuran-2-ylmethyl)amide] | 38 | 35 |
| CC(C)CC1NC2(CCN(C(=S)Nc3cc(C(F)(F)F)cc(C(F)(F)F)c3)CC2)N(Cc2ccccc2C#N)C1=O (stereo not shown) [Example 169, 1-(2-Cyanobenzyl)-3-isobutyl-2-oxo-1,4,8-triazaspiro[4,5]decan-8-thiocarboxylic acid (3,5-bis-trifluoromethylbenzol)amide] | 91 | 44 |
| CC(C)CC1NC2(CCN(C(=S)NCc3ccccc3)CC2)N(Cc2ccccc2C#N)C1=O (stereo not shown) [Example 170, 1-(2-Cyanobenzyl)-3-isobutyl-2-oxo-1,4,8-triazaspiro[4,5]decan-8-thiocarboxylic acid benzylamide] | 53 | 46 |
| CSCCC1NC2(CCN(C(=S)Nc3ccc(Cl)cc3)CC2)N(Cc2cccc(C#N)c2)C1=O (stereo not shown) [Example 172, 1-(3-Cyanobenzyl)-3-(2-methylsulfanylethyl)-2-oxo-1,4,8-triazaspiro[4,5]decan-8-thiocarboxylic acid (4-chlorobenzol)amide] | 59 | 47 |
| CCCCN1C(=O)C(CCSC)NC12CCN(C(=S)Nc1c(F)c(F)c(F)c(F)c1F)CC2 (stereo not shown) [Example 173, 1-Butyl-3-(2-methylsulfanylethyl)-2-oxo-1,4,8-triazaspiro[4,5]decan-8-thiocarboxylic acid pentafluorobenzolamide-amide] | 40 | 45 |
| CN1C(=O)C(Cc2ccccc2)NC12CCN(C(=S)NCc1ccc(Cl)cc1)CC2 (stereo not shown) [Example 175, 3-Benzyl-1-methyl-2-oxo-1,4,8-triazaspiro[4,5]decan-8-thiocarboxylic acid 4-chlorobenzylamide] | 63 | 32 |
| CSCCC1NC2(CCN(C(=S)NC(C)c3ccccc3)CC2)N(Cc2cccc(C#N)c2)C1=O (stereo not shown) [Example 181, 1-(3-Cyanobenzyl)-3-(2-methylsulfanylethyl)-2-oxo-1,4,8-triazaspiro[4,5]decan-8-thiocarboxylic acid (1-benzol-ethyl)amide] | 57 | 40 |
| COc1ccccc1NC(=S)N1CCC2(CC1)NC(CCSC)C(=O)N2Cc1ccccc1C#N (stereo not shown) [Example 183, 1-(2-Cyanobenzyl)-3-(2-methylsulfanylethyl)-2-oxo-1,4,8-triazaspiro[4,5]decan-8-thiocarboxylic acid (2-methoxy-benzol)amide] | 37 | 29 |
| COC(=O)c1ccc(CN2C(=O)C(C(C)C)NC23CCN(C(=O)NC2CCCCC2)CC3)cc1 (stereo not shown) [Example 206, Methyl 4-(8-cyclohexylcarbamoyl-3-isopropyl-2-oxo-1,4,8-triazaspiro[4,5]dec-1-ylmethyl)benzoate] | – | 39 |
| COC(=O)c1ccc(CN2C(=O)C(C(C)C)NC23CCN(C(=O)Nc2cccc(OC)c2)CC3)cc1 (stereo not shown) [Example 223, Methyl 4-[3-isopropyl-8-(3-methoxy-benzolcarbamoyl)-2-oxo-1,4,8-triazaspiro[4,5]dec-1-ylmethyl]-benzoate] | – | 31 |
